# ChEMBL document CHEMBL1201862, “PubChem BioAssay data set” (2004)
#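 Compound exposure: 48 hours, 5 concentrations, 96-well plates. GI50 = concentration required for 50% inhibition of growth.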 The source made the active and inactive calls. Cut-off read from the data, not from the text of the source: active = GI50 up to about 1.1 µM and inactive = higher.
# Columns and labels:
# Assay in all cases: NCI anticancer screen, dose series, 48 h
# HOP-18 = tested on: HOP-18
# LXFL 529 = tested on: LXFL 529
# SW-620 = tested on: SW-620
# U-251 = tested on: U-251
# CAKI-1 = tested on: CAKI-1
# NCI-H522 = tested on: NCI-H522
# TK-10 = tested on: TK-10
# MOLT-4 = tested on: MOLT-4
# LOX IMVI = tested on: LOX IMVI
# M19-MEL = tested on: M19-MEL
# RXF 631 = tested on: RXF 631
# K562 = tested on: K562
# UACC-257 = tested on: UACC-257
# KM12 = tested on: KM12
# M14 = tested on: M14
# XF498 = tested on: XF498
# HCT-15 = tested on: HCT-15
# DMS-114 = tested on: DMS-114
# NCI-H23 = tested on: NCI-H23
# SNB-75 = tested on: SNB-75
# SNB-78 = tested on: SNB-78
# SF-295 = tested on: SF-295
# SN12C = tested on: SN12C
# UACC-62 = tested on: UACC-62
# SK-MEL-28 = tested on: SK-MEL-28
# SK-MEL-5 = tested on: SK-MEL-5
# SR = tested on: SR
# IGROV-1 = tested on: IGROV-1
# SK-OV-3 = tested on: SK-OV-3
# EKVX = tested on: EKVX
# HT-29 = tested on: HT-29
# COLO 205 = tested on: COLO 205
# UO-31 = tested on: UO-31
# NCI-H226 = tested on: NCI-H226
# HCT-116 = tested on: HCT-116
# SNB-19 = tested on: SNB-19
# CCRF-CEM = tested on: CCRF-CEM
# SF-268 = tested on: SF-268
# ACHN = tested on: ACHN
# 786-0 = tested on: 786-0
# RPMI-8226 = tested on: RPMI-8226
# OVCAR-4 = tested on: OVCAR-4
# DLD-1 = tested on: DLD-1
# HL-60 = tested on: HL-60
# SF-539 = tested on: SF-539
# HOP-62 = tested on: HOP-62
# Malme-3M = tested on: Malme-3M
# OVCAR-8 = tested on: OVCAR-8
# OVCAR-5 = tested on: OVCAR-5
# HOP-92 = tested on: HOP-92
# RXF 393 = tested on: RXF 393
# NCI-H460 = tested on: NCI-H460
# A498 = tested on: A498
# DMS-273 = tested on: DMS-273
# HCC 2998 = tested on: HCC 2998
# KM-20L2 = tested on: KM-20L2
# A549 = tested on: A549
# OVCAR-3 = tested on: OVCAR-3
structure (smiles),measurement,setting,value
c1ccc([S+](c2ccccc2)c2ccc(Sc3ccc([S+](c4ccccc4)c4ccccc4)cc3)cc2)cc1,GI50,HOP-18,30.5 µM (inactive)
same,GI50,LXFL 529,18 µM (inactive)
same,GI50,SW-620,37.9 µM (inactive)
same,GI50,U-251,15.7 µM (inactive)
same,GI50,CAKI-1,75.5 µM (inactive)
same,GI50,NCI-H522,12 µM (inactive)
same,GI50,TK-10,36.2 µM (inactive)
same,GI50,MOLT-4,9.73 µM (inactive)
same,GI50,LOX IMVI,18.6 µM (inactive)
same,GI50,M19-MEL,18.1 µM (inactive)
same,GI50,RXF 631,58.2 µM (inactive)
same,GI50,K562,1.17 µM (inactive)
same,GI50,UACC-257,12.5 µM (inactive)
same,GI50,KM12,21.3 µM (inactive)
same,GI50,M14,45.5 µM (inactive)
same,GI50,XF498,11.4 µM (inactive)
same,GI50,HCT-15,> 100 µM
same,GI50,DMS-114,3.2 µM (inactive)
same,GI50,NCI-H23,3.06 µM (inactive)
same,GI50,SNB-75,19.2 µM (inactive)
same,GI50,SNB-78,27.9 µM (inactive)
same,GI50,SF-295,25.8 µM (inactive)
same,GI50,SN12C,17.9 µM (inactive)
same,GI50,UACC-62,24 µM (inactive)
same,GI50,SK-MEL-28,34.7 µM (inactive)
same,GI50,SK-MEL-5,5.81 µM (inactive)
same,GI50,SR,6.44 µM (inactive)
same,GI50,IGROV-1,43.2 µM (inactive)
same,GI50,SK-OV-3,21.9 µM (inactive)
same,GI50,EKVX,73.6 µM (inactive)
same,GI50,HT-29,18.2 µM (inactive)
same,GI50,COLO 205,17.4 µM (inactive)
same,GI50,UO-31,60 µM (inactive)
same,GI50,NCI-H226,25.5 µM (inactive)
same,GI50,HCT-116,21.8 µM (inactive)
same,GI50,SNB-19,7.64 µM (inactive)
same,GI50,CCRF-CEM,19.4 µM (inactive)
same,GI50,SF-268,22.3 µM (inactive)
same,GI50,ACHN,26.4 µM (inactive)
same,GI50,786-0,43.8 µM (inactive)
same,GI50,RPMI-8226,4.88 µM (inactive)
same,GI50,OVCAR-4,20.6 µM (inactive)
same,GI50,DLD-1,29.2 µM (inactive)
same,GI50,HL-60,2.58 µM (inactive)
same,GI50,SF-539,31.3 µM (inactive)
same,GI50,HOP-62,39.7 µM (inactive)
same,GI50,Malme-3M,32.6 µM (inactive)
same,GI50,OVCAR-8,20.3 µM (inactive)
same,GI50,OVCAR-5,12.3 µM (inactive)
same,GI50,HOP-92,27.6 µM (inactive)
same,GI50,RXF 393,19.7 µM (inactive)
same,GI50,NCI-H460,29.6 µM (inactive)
same,GI50,A498,44.4 µM (inactive)
same,GI50,DMS-273,19.5 µM (inactive)
same,GI50,HCC 2998,20.2 µM (inactive)
same,GI50,KM-20L2,16.8 µM (inactive)
same,GI50,A549,9.79 µM (inactive)
same,GI50,OVCAR-3,10.2 µM (inactive)
